{"source": "a melting point compilation (Tetko et al.; mined from patent text by program, amines drawn as free bases though some values may be those of a salt)", "data": [{"units": {"melting point": "°C"}, "values": [{"smiles": "Cc1ccn(-c2ccc(C)c(C(=O)N3Cc4cccnc4Nc4ccccc43)c2)n1", "melting point": "209 to 210"}, {"smiles": "CCC(=O)N(C)c1cccc(-c2ccnc3c(C(=O)c4ccccc4)cnn23)c1", "melting point": "154 to 156"}, {"smiles": "CCCCCCCCn1nc(C)c(N=Nc2c(O)cc(S(=O)(=O)N(CC)CC)c3ccccc23)c1O", "melting point": "122 to 123"}, {"smiles": "Cc1c(CCc2ccccc2)c(=O)oc2cc(OCC#N)cc(OCC#N)c12", "melting point": "179 to 183"}, {"smiles": "COc1ccc(F)cc1Oc1c(Cl)ncnc1NS(=O)(=O)c1ccc(Cl)cc1", "melting point": "169 to 171"}, {"smiles": "CCCOc1ccccc1-c1cc(C)c(C#N)c(=O)[nH]1", "melting point": 180}, {"smiles": "CCC(C)(C)c1ccc(OCC(=O)Nc2cccc(C(C)=O)c2)c(C(C)(C)CC)c1", "melting point": 135}, {"smiles": "Cc1scc2c1N(C(=O)N1CCCC(CCCN(C)C)C1)c1ccccc1NC2=O", "note": "(centres undefined)", "melting point": "137 to 139"}, {"smiles": "CCCc1cc2c(=O)cc(C(=O)O)[nH]c2cc1OCCCOc1c(CCC)cc(C(C)=O)c(O)c1CCC", "melting point": "128 to 131"}, {"smiles": "COc1ccc(NS(=O)(=O)c2cccc3c(N(C)C)cccc23)nn1", "melting point": "125 to 127"}, {"smiles": "Clc1ccc2nc(Cl)nc(-c3ccccc3)c2c1", "melting point": "159 to 160"}, {"smiles": "COC(=O)C(=C/c1ccccc1)/C(=C\\c1cc(OC)c(OC)c(OC)c1)C(=O)O", "melting point": "131 to 133"}, {"smiles": "Cc1cccc(C)c1NC(=O)Nc1ccc(CC(=O)NC(CC(C)C)c2ncc(CCC(=O)O)s2)cc1", "note": "(centres undefined)", "melting point": "125 to 127"}, {"smiles": "Clc1cc(Nc2nnc(-c3ccc4nonc4c3)s2)ccc1Br", "melting point": "326 to 327"}, {"smiles": "COC(=O)Cc1ccc(OC[C@@H](C)NC[C@H](O)c2ccccc2)cc1", "melting point": "69 to 70"}, {"smiles": "COc1cn(-c2cccc(C(F)(F)F)c2)nc(-n2ccnc2-c2ccccc2)c1=O", "melting point": "167 to 170"}, {"smiles": "C[N+]1([O-])C(=O)C(F)N=C(c2ccccc2)c2cc(Cl)ccc21", "note": "(centres undefined)", "melting point": "167 to 169"}, {"smiles": "COCCN1CCc2ccc(Nc3ncc(Cl)c(Nc4ccc(N5CCOCC5)cc4OCCC#N)n3)cc2CC1", "melting point": "91 to 96"}, {"smiles": "CC1(C)CC(c2ccccn2)c2ccccc2O1", "note": "(centres undefined)", "melting point": "99 to 101"}, {"smiles": "C=CCC1c2ccccc2Cn2cc3c(c21)C(=O)c1ccccc1C3=O", "note": "(centres undefined)", "melting point": "159 to 160"}, {"smiles": "O=C(O)CCc1cn(Cc2cc(OCc3csc(-c4ccccc4)n3)cc(OCc3csc(-c4ccccc4)n3)c2)cc1-c1ccccc1", "melting point": "78 to 79"}, {"smiles": "CC(=O)Nc1ccc(OCCN2CC=C(c3ccc(F)cc3)CC2)cc1", "melting point": "96 to 98"}, {"smiles": "C[C@]1(CN2CCC(OCc3ccc(Cl)c(Cl)c3)CC2)Cn2cc([N+](=O)[O-])nc2O1", "melting point": "132 to 136"}, {"smiles": "CN(C)CCCn1c(-c2ccc(Br)cc2)csc1=Nc1ccccc1", "melting point": "110 to 111"}, {"smiles": "CC(=O)COc1cc2c3ccccc3n(Cc3ccccc3)c2cn1", "melting point": "141 to 142"}, {"smiles": "CCOC(=O)C1=CC(OCC)(C(C)C)N(c2ccc(Cl)cc2Cl)N1", "note": "(centres undefined)", "melting point": "105 to 110"}, {"smiles": "CN1Cc2c(-c3noc(CCl)n3)ncn2-c2ccc(F)cc2C1=O", "melting point": "245 to 247"}, {"smiles": "COc1cccc2sc(-c3ccc(C(F)(F)F)cc3)nc12", "melting point": 104}, {"smiles": "CC(C)c1ccc(C(=O)NC(C)c2ccc(Br)s2)cc1", "note": "(centres undefined)", "melting point": 108}, {"smiles": "CN(C)S(=O)(=O)c1ccc2c(c1)S(=O)(=O)NC1CCCN21", "note": "(centres undefined)", "melting point": "240 to 243"}, {"smiles": "COC1=CC(C=O)(NC(c2ccccc2)(c2ccccc2)c2ccccc2)NC=C1", "note": "(centres undefined)", "melting point": 172}, {"smiles": "CCOC(=O)C=C1c2ccccc2CC(=O)c2ccccc21", "melting point": "56 to 62"}, {"smiles": "CSc1cccc(SC)c1S(=O)(=O)NC(C)(C)C", "melting point": "182 to 185"}, {"smiles": "CCn1ncc2c(NCC3CCC(C(=O)OCSC)CC3)c3ccccc3nc21", "note": "(centres undefined)", "melting point": "135 to 136"}, {"smiles": "CC(=O)NC[C@H]1CN(c2ccc(C(=O)c3cnc4cc(-c5ccccc5)ccn34)cc2)C(=O)O1", "melting point": "256 to 258"}, {"smiles": "Cc1ccc(S(=O)(=O)OCCC2COc3cc(Cl)c(Cl)cc3O2)cc1", "note": "(centres undefined)", "melting point": "135 to 138"}, {"smiles": "Cc1ccccc1C(=O)Nc1ccc(C(=O)N2CCCC(OCCO)c3cc(Cl)ccc32)cc1", "note": "(centres undefined)", "melting point": "185 to 188"}, {"smiles": "CSc1c(CC(=O)O)ccc2c3ccccc3n(Cc3ccc(F)cc3)c12", "melting point": "156 to 157"}, {"smiles": "CCCC1OCC(C)n2c1nc1c(N)nc3ccccc3c12", "note": "(centres undefined)", "melting point": "243 to 268"}, {"smiles": "CC1(C)CCC(C)(C)c2c(O)cc(-c3ccccc3)cc21", "melting point": 121}, {"smiles": "CC(=O)Nc1ccc(C23CC2C(=O)N(C)C3=O)cc1", "note": "(centres undefined)", "melting point": "183 to 184"}, {"smiles": "O=c1[nH]c(-c2ccccc2)c(-c2ccncc2)o1", "melting point": 300}, {"smiles": "CCCCCCCCCCCCCCCCCC(=O)Nc1ccc(NC(=O)NS(=O)(=O)c2ccc(OC)cc2)cc1", "melting point": 188}, {"smiles": "CCCn1c(=O)c2cc(C(=O)OCC)cn2c2ccccc21", "melting point": "143 to 144"}, {"smiles": "COc1ccc(-c2cc(=O)c3c(O)cc(O)c(-c4cc(-c5cc(=O)c6c(O)cc(O)cc6o5)ccc4OC)c3o2)cc1", "melting point": "219 to 222"}, {"smiles": "CC(=O)OC1c2ccc(Cl)cc2CC1S(C)(=O)=O", "note": "(centres undefined)", "melting point": 136}, {"smiles": "O=S(=O)(c1ccc(Oc2ccccc2)cc1)c1ccc(Oc2ccccc2)cc1", "melting point": "142 to 143"}, {"smiles": "CC(C)(C)OC(=O)c1cc(Cl)nc(Cl)c1", "melting point": "79 to 81"}, {"smiles": "COc1cc(OC)nc(-n2c(SC)nc3ccccc32)n1", "melting point": "135 to 137"}, {"smiles": "O=S(=O)(CCO)Nc1cc(C(c2cc(F)ccc2F)S(=O)(=O)c2ccc(Cl)cc2)c(Cl)cn1", "note": "(centres undefined)", "melting point": "155 to 158"}, {"smiles": "Cc1cc(C)c2cccc(OCc3c(Cl)ccc(S(=O)(=O)N4CCC[C@H]4C(=O)NCCCNC(=O)COc4ccc(C=NN)cc4)c3Cl)c2n1", "melting point": "124 to 128"}, {"smiles": "Oc1cccnc1Sc1cccc(Br)c1", "melting point": "125 to 126"}, {"smiles": "O=c1[nH]c2cc(Cl)cc(Cl)c2c(=O)n1Cc1ccc(I)cc1", "melting point": "314 to 316"}, {"smiles": "COc1cc(OC)c2c(=O)c3c(Cl)ccc([N+](=O)[O-])c3[nH]c2c1", "melting point": "291 to 294"}, {"smiles": "COc1cc2c(cc1Br)-c1c(-c3cccs3)c3c(n1CC2)C(=O)N(C(C)C)CCNC3", "melting point": "201 to 203"}, {"smiles": "Cc1nc(Nc2nc(N)nc(-c3ccccc3)c2-c2ccc(=O)n(C(C)C)n2)sc1C", "melting point": "256 to 258"}, {"smiles": "OCC(O)CSC(=S)Nc1ccccn1", "note": "(centres undefined)", "melting point": 98}, {"smiles": "CC(C)(C)NS(=O)(=O)c1ccc([N+](=O)[O-])cc1", "melting point": "105 to 109"}, {"smiles": "O=C(Nc1ccc(F)cc1)NC1CCN(S(=O)(=O)c2ccc(Cl)cc2)CC1", "melting point": "160 to 162"}, {"smiles": "O=C(O)CCCCC1Cc2ccc(F)cc2C1=O", "note": "(centres undefined)", "melting point": "122 to 123"}, {"smiles": "CCc1ccc(NC(=O)c2ccccc2CN2C(=O)C3(COc4cc5c(cc43)CCO5)c3ccccc32)cc1", "note": "(centres undefined)", "melting point": "> 230"}, {"smiles": "Cc1cn(Nc2ccncn2)c2ccccc12", "melting point": "121 to 123"}, {"smiles": "CC1(C)C=C(c2ccccn2)c2cc(-c3ccccc3)ccc2OC1", "melting point": "115 to 120"}, {"smiles": "CCOC(=O)c1sc2ccc(O)c(C=Nc3ccc(OC)cc3)c2c1Cl", "melting point": "162 to 163"}, {"smiles": "CSc1ccc(C(CC2CCCC2)C(=O)Nc2ccc([N+](=O)[O-])cn2)cc1C(F)(F)F", "note": "(centres undefined)", "melting point": "109 to 110"}, {"smiles": "Cc1nc(SCc2ncccc2C(=O)O)sc1CC(=O)O", "melting point": "225 to 227"}, {"smiles": "C=C(C)COc1cc(C)c(NC=O)c(C)c1C", "melting point": "144 to 145"}, {"smiles": "CCOC(=O)c1cnc2ccc(Cl)cc2c1Cl", "melting point": "87 to 88"}, {"smiles": "O=c1[nH]c2ccccc2n1C/C=C/CCl", "melting point": 120}]}]}
